Earlier results, collected in patent US11708332B2, “Human plasma kallikrein inhibitors” (BioCryst Pharmaceuticals, Inc., priority 2014, dated 2023).

Columns and labels:
[1] = tested on: hereditary angioedema (HAE)
[2] = tested on: lipopolysaccharide (LPS)- or bacterial-induced sepsis; conditions: LPS- or bacterial-induced sepsis in animals
[3] = tested on: middle cerebral artery occlusion (MCAO); conditions: mouse model of MCAO

NC(N)=NCCC[C@@H](N)C(=O)N[C@@H](CCCN=C(N)N)C(=O)N1CCC[C@H]1C(=O)N1C[C@H](O)C[C@H]1C(=O)NCC(=O)N[C@@H](Cc1cccs1)C(=O)N[C@@H](CO)C(=O)N1Cc2ccccc2C[C@@H]1C(=O)N1[C@H](C(=O)N[C@@H](CCCN=C(N)N)C(=O)O)C[C@@H]2CCCC[C@@H]21 [Icatibant]
effectiveness in treating HAE ([1]; HAE): effective

H-D-Pro-Phe-Arg-chloromethylketone
lesions [2]: reduce

ecallantide [DX-88]
edema in patients with hereditary angioedema (HAE) ([1]; patients with HAE): alleviates edema

B1: Cl-inhibitor: "Cl-inhibitor reduced infarct size in a mouse model of middle cerebral artery occlusion (MCAO)" (protein, UniProt P05155 23-500, looked up)
Plasma protease C1 inhibitor: NPNATSSSSQDPESLQDRGEGKVATTVISKMLFVEPILEVSSLPTTNSTTNSATKITANTTDEPTTQPTTEPTTQPTIQPTQPTTQLPTDSPTQPTTGSFCPGPVTLCSDLESHSTEAVLGDALVDFSLKLYHAFSAMKKVETNMAFSPFSIASLLTQVLLGAGENTKTNLESILSYPKDFTCVHQALKGFTTKGVTSVSQIFHSPDLAIRDTFVNASRTLYSSSPRVLSNNSDANLELINTWVAKNTNNKISRLLDSLPSDTRLVLLNAIYLSAKWKTTFDPKKTRMEPFHFKNSVIKVPMMNSKKYPVAHFIDQTLKAKVGQLQLSHNLSLVILVPQNLKHRLEDMEQALSPSVFKAIMEKLEMSKFQPTLLTLPRIKVTTSQDMLSIMEKLEFFDFSYDLNLCGLTEDPDLQVSAMQHQTVLELTETGVEAAAASAISVARTLLVFEVQQPFLFVLWDQQHKFPVFMGRVYDPRA
infarct size [3]: reduced

B2: C1-inhibitor: "a physiological inhibitor (C1-inhibitor)" (protein, UniProt P05155 23-500, looked up)
Plasma protease C1 inhibitor: NPNATSSSSQDPESLQDRGEGKVATTVISKMLFVEPILEVSSLPTTNSTTNSATKITANTTDEPTTQPTTEPTTQPTIQPTQPTTQLPTDSPTQPTTGSFCPGPVTLCSDLESHSTEAVLGDALVDFSLKLYHAFSAMKKVETNMAFSPFSIASLLTQVLLGAGENTKTNLESILSYPKDFTCVHQALKGFTTKGVTSVSQIFHSPDLAIRDTFVNASRTLYSSSPRVLSNNSDANLELINTWVAKNTNNKISRLLDSLPSDTRLVLLNAIYLSAKWKTTFDPKKTRMEPFHFKNSVIKVPMMNSKKYPVAHFIDQTLKAKVGQLQLSHNLSLVILVPQNLKHRLEDMEQALSPSVFKAIMEKLEMSKFQPTLLTLPRIKVTTSQDMLSIMEKLEFFDFSYDLNLCGLTEDPDLQVSAMQHQTVLELTETGVEAAAASAISVARTLLVFEVQQPFLFVLWDQQHKFPVFMGRVYDPRA
lesions [2]: reduce
